Laboratory results published in the supplement of paper PMC10307832.

How the values were obtained:
Test in all cases: relative viability (nuclei count vs DMSO), 5 days (fraction); higher = more cells survive
[1] = compound: CN[C@@H]1C[C@H]2O[C@@](C)([C@@H]1OC)n1c3ccccc3c3c4c(c5c6ccccc6n2c5c31)C(=O)NC4 [Staurosporine] + Cc1cc(Nc2cc(N3CCN(C)CC3)nc(Sc3ccc(NC(=O)C4CC4)cc3)n2)n[nH]1 [Tozasertib] (partner 0.1 µM)
Procedure, shortened: (§1)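 Lung cancer cell lines in 1536-well plates were dosed by pin tool the day after seeding, either with one drug alone or with a fixed anchor-drug dose plus five library-drug doses (not always all listed) in √10 steps. After 5 days, cells were fixed and their nuclei stained in one step (final 0.05% Triton X-100, 1% formaldehyde, 1 ug/ml Hoechst), then counted on 4× images. Relative viability is the nuclei count in treated wells divided by that in vehicle wells. Values are medians of duplicate plates.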

[2] = compound: O=c1[nH]cc(F)c(=O)[nH]1 [5-Fluorouracil] + C[C@@H](Oc1cc(-c2cnn(C3CCNCC3)c2)cnc1N)c1c(Cl)ccc(F)c1Cl [Crizotinib] (partner 1 µM)
Procedure, shortened: as §1

Sulindac + OSI-027 = compound: CC1=C(CC(=O)O)c2cc(F)ccc2/C1=C\c1ccc([S+](C)[O-])cc1 [Sulindac] + COc1cccc2cc(-c3nc([C@H]4CC[C@H](C(=O)O)CC4)n4ncnc(N)c34)[nH]c12 [OSI-027] (partner 0.5 µM)
Procedure, shortened: as §1

[3] = compound: O=c1[nH]cc(F)c(=O)[nH]1 [5-Fluorouracil] + O=C(CCCCCCC(=O)Nc1ccccc1)NO [Vorinostat] (partner 1 µM)
Procedure, shortened: as §1

| Cell Line | relative viability ([1]; first compound 0.005 µM) | relative viability ([1]; first compound 0.01581 µM) | relative viability ([1]; first compound 0.05 µM) | relative viability ([1]; first compound 0.1581 µM) | relative viability ([1]; first compound 0.5 µM) | relative viability ([2]; first compound 0.02 µM) | relative viability ([2]; first compound 0.2 µM) | relative viability ([2]; first compound 0.6325 µM) | relative viability ([2]; first compound 2 µM) | relative viability (Sulindac + OSI-027; first compound 0.08 µM) | relative viability (Sulindac + OSI-027; first compound 0.253 µM) | relative viability (Sulindac + OSI-027; first compound 0.8 µM) | relative viability (Sulindac + OSI-027; first compound 2.53 µM) | relative viability (Sulindac + OSI-027; first compound 8 µM) | relative viability ([3]; first compound 0.02 µM) | relative viability ([3]; first compound 0.2 µM) | relative viability ([3]; first compound 0.6325 µM) | relative viability ([3]; first compound 2 µM) |
| --- | --- | --- | --- | --- | --- | --- | --- | --- | --- | --- | --- | --- | --- | --- | --- | --- | --- | --- |
| ChaGo-K-1 | 0.202 | 0.181 | 0.162 | 0.145 | 0.157 | 1.15 | 1.06 | 0.821 | 0.711 | 0.68 | 0.644 | 0.398 | 0.57 | 0.61 | 0.814 | 0.687 | 0.622 | 0.384 |
| SK-MES-1 | 0.52 | 0.327 | 0.149 | 0.125 | 0.125 | 1.01 | 0.743 | 0.368 | 0.319 | 0.781 | 0.823 | 0.55 | 0.609 | 0.631 | 1.2 | 0.404 | 0.306 | 0.302 |
| NCI-H2085 | 0.721 | 0.32 | 0.355 | 0.24 |  | 0.962 | 1.01 | 0.756 | 0.636 | 0.8 | 0.822 | 0.674 | 0.831 | 0.755 | 0.754 | 0.96 | 0.728 | 0.651 |
| LC-2-ad | 0.435 | 0.239 | 0.253 | 0.219 | 0.161 | 0.431 | 0.417 | 0.289 | 0.216 | 0.763 | 0.986 | 0.686 | 0.701 | 0.776 | 0.697 | 0.589 | 0.42 | 0.256 |
| 201T | 1.06 |  | 0.758 | 0.373 | 0.31 | 1.02 | 0.948 | 0.384 | 0.287 | 0.746 | 0.802 | 0.744 | 0.727 | 0.879 | 1.04 | 0.54 | 0.287 | 0.228 |
| NCI-H2023 | 0.202 | 0.21 | 0.0713 | 0.0971 | 0.0603 | 0.621 | 0.189 | 0.105 | 0.106 | 0.501 | 0.509 | 0.399 | 0.387 | 0.389 | 0.369 | 0.124 | 0.103 | 0.0849 |
| NCI-H23 | 0.324 |  | 0.198 | 0.157 | 0.196 | 0.613 | 0.619 | 0.415 | 0.305 | 0.678 |  | 0.602 | 0.583 | 0.72 | 0.512 | 0.582 | 0.307 | 0.21 |
| LU99A | 0.266 | 0.178 | 0.185 | 0.225 | 0.138 | 0.579 | 0.521 | 0.521 | 0.384 | 0.306 | 0.289 | 0.284 | 0.299 | 0.306 | 0.497 | 0.479 | 0.44 | 0.302 |
| NCI-H1437 | 0.402 |  | 0.381 | 0.325 | 0.199 |  | 0.257 | 0.2 | 0.155 | 1.01 | 1 | 0.767 | 0.811 | 0.96 | 0.441 | 0.301 | 0.252 | 0.253 |
| EKVX | 0.346 | 0.213 | 0.17 | 0.165 | 0.134 | 0.842 |  | 0.181 |  | 0.674 | 0.713 | 0.641 | 0.598 | 0.684 | 0.69 | 0.328 |  |  |
| ABC-1 | 0.134 | 0.104 | 0.125 | 0.111 | 0.111 | 1.17 | 1.05 | 0.967 | 0.871 | 0.503 | 0.447 | 0.361 | 0.466 | 0.489 | 0.982 | 1.24 | 0.963 | 0.834 |
| NCI-H647 | 0.201 | 0.157 | 0.0667 | 0.0489 | 0.061 | 1.13 | 1.1 | 0.941 | 0.692 | 0.63 | 0.947 | 0.487 | 0.677 | 0.683 | 0.432 | 0.593 | 0.48 | 0.187 |
| NCI-H1734 | 0.314 | 0.206 | 0.191 | 0.132 | 0.0956 | 0.709 | 0.742 | 0.533 | 0.37 | 0.663 | 0.636 |  | 0.583 | 0.711 | 0.807 | 0.835 | 0.685 | 0.464 |
| LCLC-97TM1 | 0.277 | 0.139 | 0.181 | 0.199 | 0.221 | 0.349 | 0.552 | 0.244 | 0.171 | 0.629 | 0.626 | 0.294 | 0.426 | 0.589 | 0.575 | 1.07 | 0.857 | 0.272 |
| NCI-H2170 | 0.756 |  | 0.429 | 0.181 | 0.181 | 1.28 | 1.1 | 0.608 | 0.468 | 0.694 | 0.72 | 0.684 | 0.739 | 0.756 | 0.796 | 0.704 | 0.33 | 0.292 |
| NCI-H322M | 0.318 | 0.318 | 0.287 | 0.334 | 0.288 | 1.09 | 0.807 | 0.699 | 0.491 | 0.6 | 0.534 | 0.442 | 0.557 | 0.602 | 0.932 | 0.917 | 0.787 | 0.757 |
| RERF-LC-KJ | 0.414 | 0.433 | 0.219 | 0.178 | 0.176 | 0.867 | 0.841 | 0.849 | 0.665 | 0.681 | 0.671 | 0.551 | 0.569 | 0.587 | 0.741 | 0.736 | 0.725 | 0.56 |
| EPLC-272H | 0.381 | 0.17 | 0.147 | 0.104 | 0.108 | 0.841 | 0.614 | 0.346 | 0.228 | 0.274 | 0.286 |  | 0.256 | 0.327 | 0.621 | 0.401 | 0.279 | 0.241 |
